Holding throughout (type): in vivo
Assay [1] has as its system Ipomoea hederacea (IPOHE). Nature of the assay: Pre-emergence herbicidal glasshouse test. As to conditions: 250 g/ha, sprayed after one day cultivation, evaluated after 13 days. A digest of the protocol: (§1)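 Damage scores on a 1–5 scale (5=81-100%; 4=61-80%; 3=41-60%; 2=21-40%; 1=0-20%) reflect percentage plant damage assessed 13 days after spraying 250 g/ha, unless otherwise stated, in acetone/water (50:50) containing 0.5% Tween 20. Pre-emergence plants were treated after one day and post-emergence plants after 8 days of cultivation.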

The subject of assay [2] is Amaranthus retoflexus (AMARE). Nature of the assay: Pre-emergence herbicidal glasshouse test. As to conditions: 250 g/ha, sprayed after one day cultivation, evaluated after 13 days. A digest of the protocol:
as §1

The subject of assay [3] is Amaranthus pa/meri (AMAPA). Nature of the assay: Pre-emergence herbicidal glasshouse test. The note with it: 250 g/ha, sprayed after one day cultivation, evaluated after 13 days. A digest of the protocol:
as §1

The test system of assay [4] is Echinochloa crus-gali (ECHCG). The assay is described as follows: Pre-emergence herbicidal glasshouse test. The note with it: 250 g/ha, sprayed after one day cultivation, evaluated after 13 days. A digest of the protocol:
as §1

Assay [5] deals with Setaria faberi (SETFA). Nature of the assay: Pre-emergence herbicidal glasshouse test. The note with it: 250 g/ha, sprayed after one day cultivation, evaluated after 13 days. A digest of the protocol:
as §1

Assay [6] deals with Ipomoea hederacea (IPOHE). Nature of the assay: Post-emergence herbicidal glasshouse test. The note with it: 250 g/ha, sprayed after 8 days cultivation, evaluated after 13 days. In outline: as §1
Assay [7] concerns Amaranthus retoflexus (AMARE). Nature of the assay: Post-emergence herbicidal glasshouse test. The note with it: 250 g/ha, sprayed after 8 days cultivation, evaluated after 13 days. In outline: as §1
Assay [8] deals with Amaranthus pa/meri (AMAPA). The assay is described as follows: Post-emergence herbicidal glasshouse test. The note with it: 250 g/ha, sprayed after 8 days cultivation, evaluated after 13 days. A digest of the protocol:
as §1

Assay [9] relates to Echinochloa crus-gali (ECHCG). The assay is described as follows: Post-emergence herbicidal glasshouse test. As to conditions: 250 g/ha, sprayed after 8 days cultivation, evaluated after 13 days. In outline: as §1
Assay [10] relates to Setaria faberi (SETFA). The assay is described as follows: Post-emergence herbicidal glasshouse test. As to conditions: 250 g/ha, sprayed after 8 days cultivation, evaluated after 13 days. In outline:
as §1

SMILES strings stand for the structures.

For `CS(=O)(=O)CCc1nc(C(F)(F)F)cn1Cc1ncc(Cl)cn1` [Compound 1.048], the “percentage damage caused to the plant, IPOHE” value in assay [1] is recorded as 5 (5=81-100%); in assay [6], 4 (4=61-80%). For the same compound, the “percentage damage caused to the plant, AMARE” value was 5 (5=81-100%) in assay [2] and 4 (4=61-80%) in assay [7]. Also, the “percentage damage caused to the plant, AMAPA” value in assay [3] and in assay [8] was 4 (4=61-80%) each time. Further, the “percentage damage caused to the plant, ECHCG” value in [4] and in [9] was 1 (1=0-20%) in each case. Moreover, the “percentage damage caused to the plant, SETFA” value in the assay on Setaria faberi (SETFA) [5] and in the assay on Setaria faberi (SETFA) [10] was 1 (1=0-20%) in each case.
As to `OCC(O)CCc1nc(C(F)(F)F)cn1Cc1ncc(Cl)cn1` (stereo not drawn) [Compound 1.011, 4-[1-[(5-chloropyrimidin-2-yl)methyl]-4-(trifluoromethyl)imidazol-2-yl]butane-1,2-diol], the “percentage damage caused to the plant, IPOHE” value is given as 1 (1=0-20%) in assay [1] and 3 (3=41-60%) in assay [6]. Also, the results for the “percentage damage caused to the plant, AMARE” value in assay [2] and in assay [7] were 1 (1=0-20%) and 2 (2=21-40%), respectively. For the same compound, the “percentage damage caused to the plant, AMAPA” value in assay [3] is 1 (1=0-20%); in [8] it was 2 (2=21-40%). Besides, the “percentage damage caused to the plant, ECHCG” value in assay [4] and in [9] was 1 (1=0-20%) each time. The “percentage damage caused to the plant, SETFA” value with Setaria faberi (SETFA) [5] and in the assay on Setaria faberi (SETFA) [10] was 1 (1=0-20%) throughout.
Consider `N#CC1(c2nc(C(F)(F)F)cn2Cc2ncc(Cl)cn2)CC1` [Compound 1.060], for which the entries for the “percentage damage caused to the plant, IPOHE” value in assay [1] and in [6] were 3 (3=41-60%) and 2 (2=21-40%), respectively. Moreover, the “percentage damage caused to the plant, AMARE” value in assay [2] and in [7] was 2 (2=21-40%) in each case. The “percentage damage caused to the plant, AMAPA” value in assay [3] and in assay [8] was 2 (2=21-40%) in each case. Also, the “percentage damage caused to the plant, ECHCG” value in assay [4] and in assay [9] was 1 (1=0-20%) each time. Further, the “percentage damage caused to the plant, SETFA” value in the assay on Setaria faberi (SETFA) [5] and in the assay on Setaria faberi (SETFA) [10] was 1 (1=0-20%) throughout.
Consider `FC(F)(F)CCCc1nc(Cl)cn1Cc1ncc(Cl)cn1` [Compound 1.001, 5-chloro-2-[[4-chloro-2-(4,4,4-trifluorobutyl)imidazol-1-yl]methyl]pyrimidine], for which the “percentage damage caused to the plant, IPOHE” value in [1] was 1 (1=0-20%); in [6] it was 2 (2=21-40%). Besides, the “percentage damage caused to the plant, AMARE” value in assay [2] is recorded as 1 (1=0-20%); in assay [7] it was 2 (2=21-40%). For the same compound, the “percentage damage caused to the plant, AMAPA” value in [3] and in [8] was 2 (2=21-40%) in each case. Further, the “percentage damage caused to the plant, ECHCG” value in [4] and in assay [9] was 1 (1=0-20%) in each case. Also, the “percentage damage caused to the plant, SETFA” value in the assay with Setaria faberi (SETFA) [5] and in the assay with Setaria faberi (SETFA) [10] was 1 (1=0-20%) each time.
With `FC(F)(F)CCc1nc(C(F)(F)F)cn1Cc1ncc(Cl)cn1` [Compound 1.002, 5-chloro-2-[[4-(trifluoromethyl)-2-(3,3,3-trifluoropropyl)imidazol-1-yl]methyl]pyrimidine], the “percentage damage caused to the plant, IPOHE” value in assay [1] and in assay [6] was 5 (5=81-100%) in each case. The “percentage damage caused to the plant, AMARE” value in [2] and in [7] was 5 (5=81-100%) in each case. Also, the “percentage damage caused to the plant, AMAPA” value in [3] and in assay [8] was 5 (5=81-100%) throughout. The “percentage damage caused to the plant, ECHCG” value in assay [4] and in assay [9] was 5 (5=81-100%) throughout. The “percentage damage caused to the plant, SETFA” value in the assay with Setaria faberi (SETFA) [5] and in the assay with Setaria faberi (SETFA) [10] was 5 (5=81-100%) throughout.
Take `CCCCc1nc(C(F)(F)F)cn1Cc1ncc(Cl)cn1` [Compound 1.026]: the “percentage damage caused to the plant, IPOHE” value in assay [1] is reported as 3 (3=41-60%); in assay [6], 4 (4=61-80%). The “percentage damage caused to the plant, AMARE” value in [2] and in [7] was 5 (5=81-100%) throughout. The “percentage damage caused to the plant, AMAPA” value in assay [3] and in [8] was 5 (5=81-100%) throughout. The “percentage damage caused to the plant, ECHCG” value in [4] is recorded as 3 (3=41-60%); in assay [9], 2 (2=21-40%). The “percentage damage caused to the plant, SETFA” value in the assay on Setaria faberi (SETFA) [5] is 5 (5=81-100%); in the assay with Setaria faberi (SETFA) [10], 2 (2=21-40%).
On to `FC(F)(F)CCCc1nc(Cl)c(Cl)n1Cc1ncc(Cl)cn1` [Compound 1.004, 5-chloro-2-[[4,5-dichloro-2-(4,4,4-trifluorobutyl)imidazol-1-yl]methyl]pyrimidine], for which the results for the “percentage damage caused to the plant, IPOHE” value in assay [1] and in assay [6] were 2 (2=21-40%) and 3 (3=41-60%), respectively. Moreover, the “percentage damage caused to the plant, AMARE” value in assay [2] is 5 (5=81-100%); in assay [7], 4 (4=61-80%). The “percentage damage caused to the plant, AMAPA” value in assay [3] was 5 (5=81-100%); in assay [8], 4 (4=61-80%). The “percentage damage caused to the plant, ECHCG” value in assay [4] and in [9] was 3 (3=41-60%) throughout. The “percentage damage caused to the plant, SETFA” value with Setaria faberi (SETFA) [5] and in the assay on Setaria faberi (SETFA) [10] was 4 (4=61-80%) throughout.
Consider `CC(C)(O)CCc1nc(C(F)(F)F)cn1Cc1ncc(Cl)cn1` [Compound 1.086], for which the “percentage damage caused to the plant, IPOHE” value in assay [1] and in assay [6] was 3 (3=41-60%) in each case. In addition, the “percentage damage caused to the plant, AMARE” value in assay [2] was 1 (1=0-20%); in assay [7] it was 2 (2=21-40%). The “percentage damage caused to the plant, AMAPA” value is 1 (1=0-20%) in assay [3] and 2 (2=21-40%) in assay [8]. The “percentage damage caused to the plant, ECHCG” value in assay [4] and in assay [9] was 1 (1=0-20%) throughout. Moreover, the “percentage damage caused to the plant, SETFA” value with Setaria faberi (SETFA) [5] and in the assay with Setaria faberi (SETFA) [10] was 1 (1=0-20%) in each case.
In the case of `CCOCc1nc(C(F)(F)F)cn1Cc1ncc(Cl)cn1` [Compound 1.039], the “percentage damage caused to the plant, IPOHE” value in assay [1] and in assay [6] was 2 (2=21-40%) in each case. Further, the “percentage damage caused to the plant, AMARE” value in [2] is given as 4 (4=61-80%); in assay [7], 2 (2=21-40%). The “percentage damage caused to the plant, AMAPA” value in assay [3] is 3 (3=41-60%); in assay [8] it was 2 (2=21-40%). In addition, the “percentage damage caused to the plant, ECHCG” value in [4] and in assay [9] was 1 (1=0-20%) each time. The “percentage damage caused to the plant, SETFA” value with Setaria faberi (SETFA) [5] is given as 2 (2=21-40%); with Setaria faberi (SETFA) [10], 1 (1=0-20%).

The values are drawn from patent US20260035359A1, “HERBICIDAL IMIDAZOLE COMPOUNDS” (SYNGENTA CROP PROTECTION AG, priority 2022, published 2026).
